Patent US10173968B2, “Bishydrazone-based antifungal agents” (University of Kentucky Research Foundation, priority 2016, dated 2019)
“And” between values parts separate entries of the source, which are not always exact repeats. Identical values can stand only once. Like-named read-outs stand apart in the source and are kept apart here.

Experiments:
[1] = system: K. pneumoniae ATCC 27736; test: Antibacterial MIC, double-dilution method; assay type: cell-based; details: Klebsiella pneumoniae, ATCC27736, strain H, Gram-negative, read-out: MIC
Method: (§1) MIC values were determined against a variety of Gram-positive (strains A-D) and Gram-negative (E-J) bacterial and mycobacterial (K) strains using the double-dilution method, as previously published. Preliminary screening was performed using 500 μM of each compound.

[2] = system: A. baumannii ATCC 19606; test: Antibacterial MIC, double-dilution method; assay type: cell-based; details: Acinetobacter baumannii, ATCC19606
Method: as §1

[3] = system: S. enterica ATCC 14028; test: Antibacterial MIC, double-dilution method; assay type: cell-based; details: Salmonella enterica, ATCC14028
Method: as §1

[4] = system: VRE; test: Antibacterial MIC, double-dilution method; assay type: cell-based; details: Enterococcus
Method: as §1

[5] = system: M. smegmatis MC2-155; test: Antibacterial MIC, double-dilution method; assay type: cell-based; details: Mycolicibacterium smegmatis, MC2155, strain K, mycobacterial, read-out: MIC
Method: as §1

[6] = system: P. aeruginosa ATCC 27853; test: Antibacterial MIC, double-dilution method; assay type: cell-based; details: Pseudomonas aeruginosa, ATCC27853, strain I, Gram-negative, read-out: MIC
Method: as §1

[7] = system: E. coli MC1061; test: Antibacterial MIC, double-dilution method; assay type: cell-based; details: Escherichia coli
Method: as §1

[8] = system: B. subtilis 168; test: Antibacterial MIC, double-dilution method; assay type: cell-based; details: Bacillus subtilis, strain A, Gram-positive
Method: as §1

[9] = system: E. cloacae ATCC 13047; test: Antibacterial MIC, double-dilution method; assay type: cell-based; details: Enterobacter cloacae, ATCC13047
Method: as §1

[10] = system: MRSA; test: Antibacterial MIC, double-dilution method; assay type: cell-based; details: Staphylococcus aureus
Method: as §1

[11] = system: L. monocytogenes ATCC 19115; test: Antibacterial MIC, double-dilution method; assay type: cell-based; details: Listeria monocytogenes, ATCC19115
Method: as §1

[12] = system: C. albicans ATCC 64124; test: Antifungal MIC, CLSI M27-A3 microbroth dilution; assay type: cell-based, Candida albicans; details: Candida albicans, ATCC64124, C. albicans ATCC 64124, resistant to FLC, ITC, and VOR, read-out: MIC
Method: (§2) In vitro MIC testing was performed according to the CLSI M27-A3 standard microbroth dilution methodology for the susceptibility testing of yeasts with minor modifications.

[13] = system: C. albicans ATCC 2876; test: Antifungal MIC, CLSI M27-A3 microbroth dilution; assay type: cell-based, Candida albicans; details: Candida albicans, ATCC2876, C. albicans ATCC 2876, susceptible to FLC, ITC, and VOR, read-out: MIC
Method: as §2

[14] = system: C. albicans ATCC 90819; test: Antifungal MIC, CLSI M27-A3 microbroth dilution; assay type: cell-based, Candida albicans; details: Candida albicans, ATCC90819, C. albicans ATCC 90819, resistant to FLC, ITC, and VOR, read-out: MIC
Method: as §2

[15] = system: C. albicans ATCC 1237; test: Antifungal MIC, CLSI M27-A3 microbroth dilution; assay type: cell-based, Candida albicans; details: ITC, and VOR
Method: as §2

[16] = system: C. albicans ATCC 2310; test: Antifungal MIC, CLSI M27-A3 microbroth dilution; assay type: cell-based, Candida albicans; details: Candida albicans, ATCC2310, C. albicans ATCC 2310, susceptible to FLC, ITC, and VOR, read-out: MIC
Method: as §2

[17] = system: C. albicans ATCC 10231; test: Antifungal MIC, CLSI M27-A3 microbroth dilution; assay type: cell-based, Candida albicans; details: Candida albicans, ATCC10231, C. albicans ATCC 10231, resistant to FLC, ITC, and VOR, read-out: MIC
Method: as §2

[18] = system: C. albicans ATCC 1003; test: Antifungal MIC, CLSI M27-A3 microbroth dilution; assay type: cell-based, Candida albicans; details: Candida albicans, ATCC1003, read-out: MIC
Method: as §2

[19] = system: C. albicans strains (panel of seven); test: Antifungal MIC, summary over the panel; assay type: cell-based, Candida albicans; details: Candida albicans; all, most or majority of the fungal strains; read-out: MIC, span over C. albicans strains
Method: In vitro MIC testing was performed according to the CLSI M27-A3 standard microbroth dilution methodology for the susceptibility testing of yeasts with minor modifications. […] MIC values were read visually for all tested compounds, and the endpoint was determined as the minimum concentration of compound that yielded complete inhibition relative to growth control.

[20] = strain E, Gram-negative, converted from μM, read-out: MIC
[21] = strain E, Gram-negative, range 0.5 to 500 μM, read-out: MIC
[22] = strain J, Gram-negative, converted from μM, read-out: MIC
[23] = strain J, Gram-negative, range 0.5 to 500 μM, read-out: MIC
[24] = strain D, Gram-positive, converted from μM, read-out: MIC
[25] = strain D, Gram-positive, range 0.5 to 500 μM, read-out: MIC
[26] = strain G, Gram-negative, converted from μM, read-out: MIC
[27] = strain G, Gram-negative, range 0.5 to 500 μM, read-out: MIC
[28] = strain F, Gram-negative, converted from μM, read-out: MIC
[29] = strain F, Gram-negative, range 0.5 to 500 μM, read-out: MIC
[30] = strain C, Gram-positive, converted from μM, read-out: MIC
[31] = strain C, Gram-positive, range 0.5 to 500 μM, read-out: MIC
[32] = strain B, Gram-positive, converted from μM, read-out: MIC
[33] = strain B, Gram-positive, range 0.5 to 500 μM, read-out: MIC
[34] = Candida albicans, ATCC1237, C. albicans ATCC 1237, resistant to FLC, converted from μg/mL, read-out: MIC
[35] = Candida albicans, ATCC1237, C. albicans ATCC 1237, resistant to FLC, read-out: MIC
[36] = C. albicans ATCC 1003, converted from μg/mL

Structure (SMILES) | MIC ([1]; converted from μM) [µg/mL] | MIC ([1]; range 0.5 to 500 μM) [µM] | MIC [2, 21] [µM] | MIC [3, 23] [µM] | MIC [4, 25] [µM] | MIC ([8]; converted from μM) [µg/mL] | MIC ([8]; range 0.5 to 500 μM) [µM] | MIC [10, 31] [µM] | MIC [11, 33] [µM] | MIC ([12]; converted from μg/mL) [µM] | MIC [12] [µg/mL] | MIC ([13]; converted from μg/mL) [µM] | MIC [13] [µg/mL] | MIC ([14]; converted from μg/mL) [µM] | MIC [14] [µg/mL] | MIC [15, 34] [µM] | MIC [15, 35] [µg/mL] | MIC ([16]; converted from μg/mL) [µM] | MIC [16] [µg/mL] | MIC ([17]; converted from μg/mL) [µM] | other results
C/C(=N\NC(=N)N)c1ccc(Cc2ccc(/C(C)=N/NC(=N)N)cc2)cc1.Cl.Cl [Compound 4C, (2E,2′E)-2,2′-((methylenebis(4,1-phenylene))bis(ethan-1-yl-1-ylidene))bis(hydrazine-1-carboximidamide) dihydrochloride] | > 219 | > 500 | > 500 | > 500 | 2 | > 219 | > 500 | 3.9 | 3.9 | 17.8 | 7.8 | 8.9 | 3.9 | 17.8 | 7.8 | 17.8 | 7.8 | 17.8 | 7.8 | 17.8 | MIC [2, 20]: > 219 µg/mL; MIC [3, 22]: > 219 µg/mL; MIC [4, 24]: 0.9 µg/mL; MIC ([5]; converted from μM): 0.9 µg/mL; MIC ([5]; range 0.5 to 500 μM): 2 µM; MIC ([6]; converted from μM): > 219 µg/mL; MIC ([6]; range 0.5 to 500 μM): > 500 µM; MIC [7, 26]: > 219 µg/mL; MIC [7, 27]: > 500 µM; MIC [9, 28]: > 219 µg/mL; MIC [9, 29]: > 500 µM; MIC [10, 30]: 1.7 µg/mL; MIC [11, 32]: 1.7 µg/mL; melting point: 342 to 344 °C; MIC [17]: 7.8 µg/mL; MIC [18, 36]: 17.8 µM; MIC [18]: 7.8 µg/mL
C/C(=N\NC(=N)N)c1ccc(-c2ccc(/C(C)=N/NC(=N)N)cc2)cc1.Cl.Cl [Compound 4A, (2E,2′E)-2,2′-([1,1′-Biphenyl]-4,4′-diylbis(ethan-1-yl-1-ylidene))bis(hydrazine-1-carboximidamide) dihydrochloride] | 6.6 | 15.6 | > 500 | > 500 | > 500 | > 212 | > 500 | > 500 | > 500 | 4.7 | 2 | 4.7 | 2 | 9.2 | 3.9 | > 73.9 | 31.3 | 9.2 | 3.9 | 4.7 to 9.2 | MIC [2]: > 212 µg/mL; MIC [3]: > 212 µg/mL; MIC [4]: > 212 µg/mL; MIC ([5]; converted from μM): > 212 µg/mL; MIC ([5]; range 0.5 to 500 μM): > 500 µM; MIC ([6]; converted from μM): 0.8 µg/mL; MIC ([6]; range 0.5 to 500 μM): 2 µM; MIC [7, 26]: 26.5 µg/mL; MIC [7, 27]: 62.5 µM; MIC [9, 28]: 52.9 µg/mL; MIC [9, 29]: 125 µM; MIC [10]: > 212 µg/mL; MIC [11]: > 212 µg/mL; MIC [19]: 2 to 3.9 µg/mL; MIC ([15]; C. albicans ATCC 1237, resistant to FLC, dihydrochloride): >31.3 µg/mL; MIC [17]: 2 to 3.9 µg/mL; MIC [18, 36]: 18.4 µM; MIC [18]: 7.8 µg/mL
C/C(=N\NC(=N)N)c1ccc(-c2ccc(/C(C)=N/Nc3ccccc3Cl)cc2)cc1.Cl [Compound 8Aa, (E)-2-(1-(4′-((E)-1-(2-(2-chlorophenyl)hydrazono)ethyl)-[1,1′-biphenyl]-4-yl)ethylidene)hydrazine-1-carboximidamide hydrochloride] | 26.6 to 53.3 | 62.5 to 125 | 62.5 | 62.5 to 125 | 3.9 | 26.6 to 53.3 | 62.5 to 125 | 125 | 62.5 to 125 | 68.7 | 31.3 | 34.3 | 15.6 | 34.3 | 15.6 | 34.3 | 15.6 | 34.3 | 15.6 | 34.3 | MIC [2, 20]: 26.6 µg/mL; MIC [3, 22]: 26.3 to 53.3 µg/mL; MIC [4, 24]: 1.7 µg/mL; MIC [7]: 213 µg/mL and 500 µM; MIC [10, 30]: 53.3 µg/mL; MIC [11, 32]: 26.6 to 53.3 µg/mL; melting point: > 380 °C; MIC [19]: 7.8 to 15.6 µg/mL; MIC [17]: 15.6 µg/mL; MIC [18, 36]: 34.3 µM; MIC [18]: 15.6 µg/mL
C/C(=N\NC(=N)N)c1ccc(/C(C)=N/NC(=N)N)cc1.Cl.Cl [Compound 4G, (2E,2′E)-2,2′-(1,4-Phenylenebis(ethan-1-yl-1-ylidene))bis(hydrazine-1-carboximidamide) dihydrochloride] | 173 | 500 | 500 | 250 to 500 | 125 | 86.8 | 250 | > 500 | 250 | 90.1 | 31.3 | > 90.1 | > 31.3 | > 90.1 | > 31.3 | > 90.1 | > 31.3 | > 90.1 | > 31.3 | > 90.1 | MIC [2, 20]: 173 µg/mL; MIC [3, 22]: 86.8 to 173 µg/mL; MIC [4, 24]: 43.4 µg/mL; MIC ([5]; converted from μM): > 173 µg/mL; MIC ([5]; range 0.5 to 500 μM): > 500 µM; MIC ([6]; converted from μM): 86.8 µg/mL; MIC ([6]; range 0.5 to 500 μM): 250 µM; MIC [7, 26]: > 173 µg/mL; MIC [7, 27]: > 500 µM; MIC [9]: > 173 µg/mL; MIC [9, 29]: > 500 µM; MIC [10]: > 173 µg/mL; MIC [11, 32]: 86.8 µg/mL; MIC [17]: > 31.3 µg/mL; MIC [18, 36]: > 90.1 µM; MIC [18]: > 31.3 µg/mL
